# Measurements taken from patent publication US20230167070A1, “MODULATORS OF TREX1” (Constellation Pharmaceuticals, Inc., priority 2020, published 2023).
# Experiments:
# [1] = biological target: T1, human TREX2 (residues M44-A279) (Homo sapiens, UniProt Q9BQ50); experiment: TREX2 Biochemical Assay (fluorescence, dsDNA substrate degradation); settings: 2.5 nM TREX2, 60 nM dsDNA substrate, 25 minutes at room temperature
# T1 construct: human TREX2 (residues M44-A279, expressed in E. coli); made in house; host or cells: E. coli
# T1 sequence (Q9BQ50 44-279 isoform Q9BQ50-1): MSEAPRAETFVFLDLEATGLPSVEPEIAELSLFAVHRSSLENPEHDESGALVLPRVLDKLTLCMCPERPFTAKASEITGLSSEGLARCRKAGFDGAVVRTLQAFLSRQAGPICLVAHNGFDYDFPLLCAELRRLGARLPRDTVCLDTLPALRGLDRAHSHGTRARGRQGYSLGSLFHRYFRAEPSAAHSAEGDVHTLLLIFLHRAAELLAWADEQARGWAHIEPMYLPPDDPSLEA
# Procedure: Degradation of the dsDNA liberates free fluorophore to produce a fluorescent signal. Specifically, 7.5 μL of N-terminally His-Tev tagged human TREX2 (residues M44-A279, expressed in E. coli and purified in house) in reaction buffer (50 mM Tris (pH 7.4), 150 mM NaCl, 2 mM DTT, 0.1 mg/mL BSA, 0.01% (v/v) Tween-20 and 100 mM MgCl2) was added to a 384-well Black ProxiPlate Plus (Perkin Elmer) which already contained compound (150 nL) at varying concentrations as a 10 point dose-response in DMSO. To this was added 7.5 μL of dsDNA substrate (Strand A: 5′ TEX615/GCT AGG CAG 3′; Strand B: 5′ CTG CCT AGC/IAbRQSp (IDT)) in reaction buffer. Final concentrations were 2.5 nM TREX2, 60 nM dsDNA substrate in reaction buffer with 1.0% DMSO (v/v). After 25 minutes at room temperature, reactions were quenched by the addition of 5 μL of stop buffer (same as reaction buffer plus 200 mM EDTA). Final concentrations in the quenched reaction mixture were […] TREX2, 45 nM DNA and 50 mM EDTA in a volume of 20 μL. After a 5-minute incubation at room temperature, plates were read in a laser sourced Envision (Perkin-Elmer), measuring fluorescence at 615 nm following excitation w/570 nm light. IC50 values were calculated by comparing the measured fluorescence at 615 nm ratio relative to control wells pre-quenched w/stop buffer (100% inhibition) and no inhibitor (0% inhibition) controls as using non-linear least square four parameter fits and either Genedata or GraphPad Prism (GraphPad Software, Inc.).
# [2] = biological target: T2, full length human TREX1 (Homo sapiens, UniProt Q9NSU2); experiment: TREX1 Biochemical Assay (fluorescence, dsDNA substrate degradation); settings: 150 pM TREX1, 60 nM dsDNA substrate, 25 minutes at room temperature
# T2 construct: N-terminally His-Tev tagged full length human TREX1; made in house; host or cells: E. coli
# T2 sequence (Q9NSU2 1-314): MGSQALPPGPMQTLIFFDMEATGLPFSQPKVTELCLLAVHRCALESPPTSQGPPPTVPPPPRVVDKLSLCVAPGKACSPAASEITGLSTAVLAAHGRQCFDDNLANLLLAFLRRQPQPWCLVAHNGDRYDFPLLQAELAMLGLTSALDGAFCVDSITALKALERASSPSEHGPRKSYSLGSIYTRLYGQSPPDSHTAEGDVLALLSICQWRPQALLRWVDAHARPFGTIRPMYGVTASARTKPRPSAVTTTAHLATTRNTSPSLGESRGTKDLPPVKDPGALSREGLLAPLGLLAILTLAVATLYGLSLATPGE
# Procedure: Degradation of the dsDNA liberates free fluorophore to produce a fluorescent signal. Specifically, 7.5 μL of N-terminally His-Tev tagged full length human TREX1 (expressed in E. coli and purified in house) in reaction buffer (50 mM Tris (pH 7.4), 150 mM NaCl, 2 mM DTT, 0.1 mg/mL BSA, 0.01% (v/v) Tween-20 and 100 mM MgCl2) was added to a 384-well Black ProxiPlate Plus (Perkin Elmer) which already contained compound (150 nL) at varying concentrations as a 10 point dose-response in DMSO. To this was added 7.5 μL of dsDNA substrate (Strand A: 5′ TEX615/GCT AGG CAG 3′; Strand B: 5′ CTG CCT AGC/IAbRQSp (Integrated DNA Technologies)) in reaction buffer. Final concentrations were 150 pM TREX1, 60 nM dsDNA substrate in reaction buffer with 1.0% DMSO (v/v). After 25 minutes at room temperature, reactions were quenched by the addition of 5 μL of stop buffer (same as reaction buffer plus 200 mM EDTA). Final concentrations in the quenched reaction were 112.5 pM TREX1, 45 nM DNA and 50 mM EDTA in a volume of 20 μL. After a 5-minute incubation at room temperature, plates were read in a laser sourced Envision (Perkin-Elmer), measuring fluorescence at 615 nm following excitation w/570 nm light. IC50 values were calculated by comparing the measured fluorescence at 615 nm ratio relative to control wells pre-quenched w/stop buffer (100% inhibition) and no inhibitor (0% inhibition) controls as using non-linear least square four parameter fits and either Genedata or GraphPad Prism (GraphPad Software, Inc.).
Structure (SMILES),IC50 [1] [nM],IC50 [2] [nM]
"CN(c1nc(C(=O)Nc2cc(F)cc(F)c2)c(O)c(=O)n1C)C(c1ccccc1)c1ccccc1 [Example 21, 2-(benzhydryl(methyl)amino)-N-(3,5-difluorophenyl)-5-hydroxy-1-methyl-6-oxo-1,6-dihydropyrimidine-4-carboxamide]",< 1000,100 to 1000
"CN(c1nc(C(=O)Nc2cccc(F)c2F)c(O)c(=O)n1C)C(c1ccccc1)c1ccccc1 [Example 22, 2-(benzhydryl(methyl)amino)-N-(2,3-difluorophenyl)-5-hydroxy-1-methyl-6-oxo-1,6-dihydropyrimidine-4-carboxamide]",< 1000,< 100
"CN(c1nc(C(=O)Nc2cc(F)ccn2)c(O)c(=O)n1C)C(c1ccccc1)c1ccccc1 [Example 23, 2-(benzhydryl(methyl)amino)-N-(4-fluoropyridin-2-yl)-5-hydroxy-1-methyl-6-oxo-1,6-dihydropyrimidine-4-carboxamide]",1000 to 10000,1000 to 10000
"CN(c1nc(C(=O)Nc2cncc(F)c2)c(O)c(=O)n1C)C(c1ccccc1)c1ccccc1 [Example 24, 2-(benzhydryl(methyl)amino)-N-(5-fluoropyridin-3-yl)-5-hydroxy-1-methyl-6-oxo-1,6-dihydropyrimidine-4-carboxamide]",1000 to 10000,100 to 1000
"CN(c1nc(C(=O)Nc2cccc(C(F)(F)F)c2)c(O)c(=O)n1C)C(c1ccccc1)c1ccccc1 [Example 27, 2-(benzhydryl(methyl)amino)-5-hydroxy-1-methyl-6-oxo-N-(3-(trifluoromethyl)phenyl)-1,6-dihydropyrimidine-4-carboxamide]",10000 to 100000,> 10000
"CN(c1nc(C(=O)Nc2ccc(C(F)(F)F)cc2)c(O)c(=O)n1C)C(c1ccccc1)c1ccccc1 [Example 28, 2-(benzhydryl(methyl)amino)-5-hydroxy-1-methyl-6-oxo-N-(4-(trifluoromethyl)phenyl)-1,6-dihydropyrimidine-4-carboxamide]",10000 to 100000,> 10000
"CN(c1nc(C(=O)Nc2ccc(F)cc2)c(O)c(=O)n1C)[C@@H](c1ccccc1)c1ccccc1Cl [Example 30, (S)-2-(((2-chlorophenyl)(phenyl)methyl)(methyl)amino)-N-(4-fluorophenyl)-5-hydroxy-1-methyl-6-oxo-1,6-dihydropyrimidine-4-carboxamide]",< 1000,100 to 1000
"Cc1noc(C)c1NC(=O)c1nc(N(C)C(c2ccccc2)c2ccccc2)n(C)c(=O)c1O [Example 33, 2-(benzhydryl(methyl)amino)-N-(3,5-dimethylisoxazol-4-yl)-5-hydroxy-1-methyl-6-oxo-1,6-dihydropyrimidine-4-carboxamide]",10000 to 100000,100 to 1000

# Further lines, results first:
IC50 [1] [nM],IC50 [2] [nM],Structure (SMILES)
< 1000,100 to 1000,"CN(c1nc(C(=O)Nc2ccccn2)c(O)c(=O)n1C)C(c1ccccc1)c1ccccc1 [Example 25, 2-(benzhydryl(methyl)amino)-5-hydroxy-1-methyl-6-oxo-N-(pyridin-2-yl)-1,6-dihydropyrimidine-4-carboxamide]"
1000 to 10000,1000 to 10000,"CN(c1nc(C(=O)Nc2cncnc2)c(O)c(=O)n1C)C(c1ccccc1)c1ccccc1 [Example 26, 2-(benzhydryl(methyl)amino)-5-hydroxy-1-methyl-6-oxo-N-(pyrimidin-5-yl)-1,6-dihydropyrimidine-4-carboxamide]"
1000 to 10000,100 to 1000,"CN(c1nc(C(=O)Nc2cncs2)c(O)c(=O)n1C)C(c1ccccc1)c1ccccc1 [Example 31, 2-(benzhydryl(methyl)amino)-5-hydroxy-1-methyl-6-oxo-N-(thiazol-5-yl)-1,6-dihydropyrimidine-4-carboxamide]"
1000 to 10000,< 100,"Cc1nocc1NC(=O)c1nc(N(C)C(c2ccccc2)c2ccccc2)n(C)c(=O)c1O [Example 32, 2-(benzhydryl(methyl)amino)-5-hydroxy-1-methyl-N-(3-methylisoxazol-4-yl)-6-oxo-1,6-dihydropyrimidine-4-carboxamide]"
1000 to 10000,1000 to 10000,"CN(c1nc(C(=O)Nc2cnnn2C)c(O)c(=O)n1C)C(c1ccccc1)c1ccccc1 [Example 34, 2-(benzhydryl(methyl)amino)-5-hydroxy-1-methyl-N-(1-methyl-1H-1,2,3-triazol-5-yl)-6-oxo-1,6-dihydropyrimidine-4-carboxamide]"
10000 to 100000,1000 to 10000,"CN(c1nc(C(=O)Nc2ccnn2C)c(O)c(=O)n1C)C(c1ccccc1)c1ccccc1 [Example 35, 2-(benzhydryl(methyl)amino)-5-hydroxy-1-methyl-N-(1-methyl-1H-pyrazol-5-yl)-6-oxo-1,6-dihydropyrimidine-4-carboxamide]"
1000 to 10000,100 to 1000,"Cc1oncc1NC(=O)c1nc(N(C)C(c2ccccc2)c2ccccc2)n(C)c(=O)c1O [Example 36, 2-(benzhydryl(methyl)amino)-5-hydroxy-1-methyl-N-(5-methylisoxazol-4-yl)-6-oxo-1,6-dihydropyrimidine-4-carboxamide]"
10000 to 100000,1000 to 10000,"Cc1onc(NC(=O)c2nc(N(C)C(c3ccccc3)c3ccccc3)n(C)c(=O)c2O)c1C [Example 37, 2-(benzhydryl(methyl)amino)-N-(4,5-dimethylisoxazol-3-yl)-5-hydroxy-1-methyl-6-oxo-1,6-dihydropyrimidine-4-carboxamide]"
10000 to 100000,1000 to 10000,"CN(c1nc(C(=O)Nc2nnco2)c(O)c(=O)n1C)C(c1ccccc1)c1ccccc1 [Example 38, 2-(benzhydryl(methyl)amino)-5-hydroxy-1-methyl-N-(1,3,4-oxadiazol-2-yl)-6-oxo-1,6-dihydropyrimidine-4-carboxamide]"
10000 to 100000,100 to 1000,"CN(c1nc(C(=O)Nc2ccon2)c(O)c(=O)n1C)C(c1ccccc1)c1ccccc1 [Example 39, 2-(benzhydryl(methyl)amino)-5-hydroxy-N-(isoxazol-3-yl)-1-methyl-6-oxo-1,6-dihydropyrimidine-4-carboxamide]"
